Laboratory results published in PubChem BioAssay AID2374 (NMMLSC, 2010).

Target: Cell division control protein 42 homolog (Homo sapiens) (UniProt P60953)
Experiment: inhibition of GTPgammaS loading onto Cdc42, late-stage follow-up, orthogonal assay for Ras-related GTPase inhibitor project, biochemical, purified His-Cdc42, PAK-PBD pull-down, Western blot (AID 2374)
Conditions: His-Cdc42 GTPgS loading, at 10 µM, stronger effect = higher value

Cell division control protein 42 homolog (Homo sapiens), sequence (P60953 whole entry, looked up): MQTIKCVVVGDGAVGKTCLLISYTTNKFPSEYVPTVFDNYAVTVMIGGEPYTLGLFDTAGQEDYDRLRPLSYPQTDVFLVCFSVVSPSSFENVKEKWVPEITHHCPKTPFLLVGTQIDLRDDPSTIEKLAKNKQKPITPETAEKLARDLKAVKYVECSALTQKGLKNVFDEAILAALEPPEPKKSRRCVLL

COc1ccc(C2CC(c3ccccc3)=NN2c2ccc(S(N)(=O)=O)cc2)cc1 (stereo not drawn)
inhibition (at 0.1 uM GTPgS): 96% | inhibition (at 0.5 uM GTPgS): 94% | inhibition: 60%
